Source: the supplement of paper PMC10307832

Experiments:
Test in all cases: relative viability (nuclei count vs DMSO), 5 days (fraction); higher = more cells survive
[1] = compound: C=CCNC1=C2C[C@@H](C)C[C@H](OC)[C@H](O)[C@@H](C)/C=C(\C)[C@H](OC(N)=O)[C@@H](OC)/C=C\C=C(/C)C(=O)NC(=CC1=O)C2=O [17-AAG] + Cc1cc(Nc2cc(N3CCN(C)CC3)nc(Sc3ccc(NC(=O)C4CC4)cc3)n2)n[nH]1 [Tozasertib] (partner 0.1 µM)
Outline: (§1)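 Dosing by pin tool came one day after lung cancer cell lines were seeded in 1536-well plates, using either one drug or a fixed anchor-drug dose plus five library-drug doses (not always all listed) in √10 steps. After 5 days, nuclei were counted on 4× images. Relative viability is treated-well nuclei count divided by vehicle-well nuclei count, and values are medians of duplicate plates.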

[2] = compound: C=CCNC1=C2C[C@@H](C)C[C@H](OC)[C@H](O)[C@@H](C)/C=C(\C)[C@H](OC(N)=O)[C@@H](OC)/C=C\C=C(/C)C(=O)NC(=CC1=O)C2=O [17-AAG] + CC(C)C[C@H](NC(=O)[C@H](Cc1ccccc1)NC(=O)c1cnccn1)B(O)O [Bortezomib] (partner 0.002 µM)
Outline: as §1

[3] = compound: C=CCNC1=C2C[C@@H](C)C[C@H](OC)[C@H](O)[C@@H](C)/C=C(\C)[C@H](OC(N)=O)[C@@H](OC)/C=C\C=C(/C)C(=O)NC(=CC1=O)C2=O [17-AAG] + Nc1ncn([C@H]2C[C@H](O)[C@@H](CO)O2)c(=O)n1 [Decitabine] (partner 2 µM)
Outline: as §1

[4] = compound: C=CCNC1=C2C[C@@H](C)C[C@H](OC)[C@H](O)[C@@H](C)/C=C(\C)[C@H](OC(N)=O)[C@@H](OC)/C=C\C=C(/C)C(=O)NC(=CC1=O)C2=O [17-AAG] + NC(=O)Nc1cc(-c2cccc(F)c2)sc1C(=O)N[C@H]1CCCNC1 [AZD7762] (partner 0.2 µM)
Outline: as §1

| Cell Line | relative viability ([1]; first compound 0.00128 µM) | relative viability ([1]; first compound 0.004048 µM) | relative viability ([1]; first compound 0.0128 µM) | relative viability ([1]; first compound 0.04048 µM) | relative viability ([1]; first compound 0.128 µM) | relative viability ([2]; first compound 0.00128 µM) | relative viability ([2]; first compound 0.004048 µM) | relative viability ([2]; first compound 0.0128 µM) | relative viability ([2]; first compound 0.04048 µM) | relative viability ([2]; first compound 0.128 µM) | relative viability ([3]; first compound 0.00128 µM) | relative viability ([3]; first compound 0.004048 µM) | relative viability ([3]; first compound 0.0128 µM) | relative viability ([3]; first compound 0.04048 µM) | relative viability ([3]; first compound 0.128 µM) | relative viability ([4]; first compound 0.004048 µM) | relative viability ([4]; first compound 0.0128 µM) | relative viability ([4]; first compound 0.04048 µM) | relative viability ([4]; first compound 0.128 µM) | relative viability ([4]; first compound 0.00128 µM) |
| --- | --- | --- | --- | --- | --- | --- | --- | --- | --- | --- | --- | --- | --- | --- | --- | --- | --- | --- | --- | --- |
| UMC-11 | 0.222 | 0.219 | 0.225 | 0.217 | 0.222 | 0.667 | 0.616 | 0.629 | 0.227 | 0.12 | 0.484 | 0.658 | 0.536 | 0.523 | 0.255 |  |  |  |  |  |
| COR-L 105 | 0.458 | 0.356 | 0.384 | 0.713 | 0.418 | 0.548 | 0.729 | 0.746 | 0.581 | 0.507 | 0.655 | 0.701 | 0.699 | 0.484 | 0.504 |  |  |  |  |  |
| EBC-1 |  |  |  |  |  | 0.536 | 0.252 | 0.185 | 0.203 | 0.165 |  |  |  |  |  |  |  |  |  |  |
| NCI-H520 | 0.453 | 0.47 | 0.457 | 0.253 | 0.24 | 0.512 | 0.58 | 0.251 | 0.14 | 0.0925 | 0.364 | 0.555 | 0.411 | 0.16 | 0.171 |  |  |  |  |  |
| SW 1573 | 0.234 | 0.254 | 0.117 | 0.104 | 0.0907 | 1.23 | 1.02 | 0.687 | 0.225 | 0.117 | 0.336 | 0.284 | 0.159 | 0.113 | 0.0972 |  |  |  |  |  |
| NCI-H1648 | 0.433 |  | 0.426 | 0.608 | 0.327 |  |  |  |  |  |  | 0.522 | 0.547 | 0.38 | 0.324 | 0.854 | 0.558 | 0.626 | 0.325 |  |
| SW 900 | 0.684 | 0.565 | 0.262 | 0.133 | 0.113 |  |  |  |  |  | 0.45 | 0.368 | 0.332 | 0.257 | 0.181 | 0.68 | 0.255 | 0.11 | 0.133 | 0.661 |
| NCI-H1792 |  |  |  |  |  | 0.912 | 0.807 | 0.839 | 0.802 | 0.137 | 0.444 | 0.345 | 0.194 | 0.12 | 0.0575 | 0.302 | 0.0583 | 0.0445 | 0.0494 | 0.494 |
| NCI-H1793 | 0.385 | 0.313 | 0.398 | 0.154 | 0.123 |  |  |  |  |  | 0.429 | 0.382 | 0.225 | 0.21 | 0.159 | 0.306 | 0.173 | 0.109 | 0.0863 | 0.66 |
| NCI-H1563 |  |  |  |  |  | 0.855 | 0.702 | 0.597 | 0.573 | 0.469 |  |  |  |  |  |  |  |  |  |  |
| NCI-H1395 | 0.625 | 0.698 | 0.694 | 0.408 | 0.342 |  |  |  |  |  | 0.611 | 0.694 | 0.568 | 0.387 | 0.383 | 0.431 | 0.395 | 0.34 | 0.337 | 0.415 |
| NCI-H1299 |  |  |  |  |  | 1.06 | 0.977 | 1.01 | 0.948 | 0.665 |  |  |  |  |  |  |  |  |  |  |
